ChEMBL document CHEMBL4017484, “Nitric Oxide Donor-Based Cancer Therapy: Advances and Prospects” (J Med Chem, 2017)

Key:
[1] = Acute toxicity in iv dosed BALB/c nude mouse assessed as mortality after 14 days; type: organism-based; details: in vivo
[2] = system: HL-60; assay: Antitumor activity against human HL60 cells xenografted in NOD-SCID mouse assessed as reduction in tumor growth at 4 umol/kg, iv measured after 15 to 20 days; type: functional; details: HL-60, iv, read-out: TGI
[3] = system: HL-60; assay: Antiproliferative activity against human HL60 cells assessed as decrease in cell viability measured after 3 days by MTT assay; type: functional, cell-based; details: HL-60, 72 h
[4] = system: HT-29; assay: Antitumor activity against human HT-29 cells xenografted in athymic nu/nu mouse assessed as reduction in tumor growth at 100 mg/kg administered every day for 18 days relative to vehicle-treated control; type: functional; details: HT-29, 432 h, read-out: TGI
[5] = substrate: CC(=O)N[C@H]1[C@@H]([C@H](O)[C@H](O)CO)O[C@@](O/N=[N+](\[O-])N2CCCC2)(C(=O)O)C[C@@H]1O; assay: Activity at Clostridium perfringens neuraminidase assessed as release of nitric oxide by UV-vis spectrophotometer

Q: For `CC1(C)CC[C@]2(C(=O)O[C@H]3O[C@@H](CO)[C@H](O)[C@@H](O)[C@@H]3O)CC[C@]3(C)C(=CC[C@@H]4[C@@]5(C)CC[C@H](OC(=O)CCC(=O)OC6CCN(/[N+]([O-])=N/O[C@@H]7O[C@H](CO)[C@H](O)[C@H](O)[C@H]7O)CC6)C(C)(C)[C@@H]5CC[C@]43C)[C@@H]2C1`, which LD50 at 336 h [1] is on record?
A: 173 mg/kg

Q: With `CCOC(=O)N1CCN(/[N+]([O-])=N/Oc2ccc([N+](=O)[O-])cc2[N+](=O)[O-])CC1` as the molecule, how does the inhibition in vivo at 4 µmol/kg [2] read?
A: 50%

Q: What about the IC50 [3] of the same molecule?
A: 200 to 500 nM

Q: With `O=C(CCCO[N+](=O)[O-])Oc1ccccc1C(=O)Oc1ccc(-c2cc(=S)ss2)cc1` as the molecule, how does the inhibition in vivo at 100 mg/kg [4] read?
A: 85%

B1: Sialidase (Clostridium perfringens), P10481 (protein)
chain: MCNKNNTFEKNLDISHKPEPLILFNKDNNIWNSKYFRIPNIQLLNDGTILTFSDIRYNGPDDHAYIDIASARSTDFGKTWSYNIAMKNNRIDSTYSRVMDSTTVITNTGRIILIAGSWNTNGNWAMTTSTRRSDWSVQMIYSDDNGLTWSNKIDLTKDSSKVKNQPSNTIGWLGGVGSGIVMDDGTIVMPAQISLRENNENNYYSLIIYSKDNGETWTMGNKVPNSNTSENMVIELDGALIMSTRYDYSGYRAAYISHDLGTTWEIYEPLNGKILTGKGSGCQGSFIKATTSNGHRIGLISAPKNTKGEYIRDNIAVYMIDFDDLSKGVQEICIPYPEDGNKLGGGYSCLSFKNNHLGIVYEANGNIEYQDLTPYYSLINKQ
Q: Which Km [5] does the source give for B1 here?
A: 140 µM
